Results as given in PubChem BioAssay AID328 (DTP/NCI, 2004).
“And” between values parts separate entries of the source, which are not always exact repeats. Equal entries are not always repeated. Toxic doses and inconclusive results are not listed.

Tested on: BDF1 mice, P388 leukemia ip, median survival T/C
Assay: NCI In Vivo Anticancer Drug Screen. Data for tumor model P388 Leukemia (intraperitoneal) in B6D2F1 (BDF1) mice
Conditions: endpoint: median survival time, higher = longer survival
How it was run: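 Compound-treated tumour-bearing mice were compared with vehicle-treated controls. Survival was recorded, and the value is the treated-group measurement divided by the control-group measurement (T/C).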

[1] = dose: 50.0 mg/kg/injection, schedule: Q01DX009 (ip), vehicle: saline with Tween-80
[2] = dose: 100.0 mg/kg/injection, schedule: Q01DX009 (ip), vehicle: saline with Tween-80
[3] = dose: 100.0 mg/kg/injection, schedule: Q04DX003 (ip), vehicle: saline with Tween-80
[4] = dose: 400.0 mg/kg/injection, schedule: Q04DX003 (ip), vehicle: saline with Tween-80
[5] = dose: 100.0 mg/kg/injection, schedule: Q04DX003 (ip), vehicle: saline
[6] = dose: 200.0 mg/kg/injection, schedule: Q04DX003 (ip), vehicle: saline with Tween-80
[7] = dose: 100.0 mg/kg/injection, schedule: Q01DX009 (ip), vehicle: Klucel (hydroxypropylcellulose) (HPC)
[8] = dose: 200.0 mg/kg/injection, schedule: Q01DX009 (ip), vehicle: saline with Tween-80
[9] = dose: 400.0 mg/kg/injection, schedule: Q01DX009 (ip), vehicle: saline with Tween-80

COc1ccc2c(c1)CCC1(C)C2=CC(=O)/C1=C\[O-].COc1ccc2c(c1)CCC1(C)C2=CC(=O)/C1=C\[O-].[Cu+2] (stereo not given)
T/C (dose: 25.0 mg/kg/injection, schedule: Q01DX009 (ip), vehicle: saline with Tween-80): 95 % of control
T/C [1]: 95 % of control
T/C [2]: 95 % of control

CC(=O)O/C(C#N)=C1\CCCC\C1=C(\C#N)OC(C)=O
T/C (dose: 25.0 mg/kg/injection, schedule: Q01DX001 (ip), vehicle: saline with Tween-80): 103 % of control

Cc1nc2nc(N)nc(N)c2nc1Sc1ccc(Cl)cc1
T/C [3]: 91 % of control
T/C [4]: 88 % of control

COC1CCC2=C(C1)C(=O)CC1c3ccccc3CN21 (stereo not given)
T/C (dose: 25.0 mg/kg/injection, schedule: Q04DX003 (ip), vehicle: saline with Tween-80): 100 % of control
T/C (dose: 50.0 mg/kg/injection, schedule: Q04DX003 (ip), vehicle: saline with Tween-80): 104 % of control

CN1CCN(c2nc3cccnc3s2)CC1
T/C [5]: 93 % of control

CCCCc1cc(O)c2c(c1O)C(=O)c1ccccc1C2=O
T/C (dose: 100.0 mg/kg/injection, schedule: Q01DX001 (ip), vehicle: saline with Tween-80): 104 % of control
T/C (dose: 200.0 mg/kg/injection, schedule: Q01DX001 (ip), vehicle: saline with Tween-80): 104 % of control
T/C (dose: 400.0 mg/kg/injection, schedule: Q01DX001 (ip), vehicle: saline with Tween-80): 90 % of control

COc1ccc2c(c1)C(C)(C)Oc1cc3oc(C(=O)O)cc(=O)c3cc1-2
T/C [3]: 104 % of control
T/C [6]: 101 % of control
T/C [4]: 104 % of control

O=NN(CCCl)C(=O)Nc1ccc(I)cc1
T/C (dose: 0.44 mg/kg/injection, schedule: Q01DX009 (ip), vehicle: saline with Tween-80): 113 % of control
T/C (dose: 0.66 mg/kg/injection, schedule: Q01DX009 (ip), vehicle: saline with Tween-80): 118 % of control
T/C (dose: 0.75 mg/kg/injection, schedule: Q04DX003 (ip), vehicle: saline): 100 % of control
T/C (dose: 0.9 mg/kg/injection, schedule: Q01DX009 (ip), vehicle: saline): 104 % of control
T/C (dose: 1.5 mg/kg/injection, schedule: Q04DX003 (ip), vehicle: saline): 109 % of control
T/C (dose: 3.0 mg/kg/injection, schedule: Q04DX003 (ip), vehicle: saline): 109 % of control
T/C (dose: 3.6 mg/kg/injection, schedule: Q01DX009 (ip), vehicle: saline): 150 % of control
T/C (dose: 44.0 mg/kg/injection, schedule: Q04DX003 (ip), vehicle: saline sonified): 150 % of control
T/C (dose: 66.0 mg/kg/injection, schedule: Q04DX003 (ip), vehicle: saline sonified): 160 % of control
T/C [3]: 215 % of control

C/C=C(\C)C(=O)OC1C(=O)OC2CC3C(C)=CC(=O)C(O)C3(C)C3C4(O)OCC23C1C(C)C4O (stereo not given)
T/C (dose: 0.06 mg/kg/injection, schedule: Q01DX009 (ip), vehicle: saline with Tween-80): 89 % of control
T/C (dose: 0.12 mg/kg/injection, schedule: Q01DX009 (ip), vehicle: saline with Tween-80): 104 % of control
T/C (dose: 0.25 mg/kg/injection, schedule: Q01DX009 (ip), vehicle: saline with Tween-80): 98 % of control
T/C (dose: 0.5 mg/kg/injection, schedule: Q01DX009 (ip), vehicle: saline with Tween-80): 107 % of control
T/C (dose: 1.0 mg/kg/injection, schedule: Q01DX009 (ip), vehicle: saline with Tween-80): 103 % of control
T/C (dose: 2.0 mg/kg/injection, schedule: Q01DX009 (ip), vehicle: saline with Tween-80): 104 % of control
T/C (dose: 4.0 mg/kg/injection, schedule: Q01DX009 (ip), vehicle: saline with Tween-80): 110 % of control
T/C (dose: 8.0 mg/kg/injection, schedule: Q01DX009 (ip), vehicle: saline with Tween-80): 100 % of control

CCN(CC)c1cc(Cl)c(C=O)cc1[N+](=O)[O-]
T/C [7]: 95 % of control
T/C (dose: 200.0 mg/kg/injection, schedule: Q01DX009 (ip), vehicle: Klucel (hydroxypropylcellulose) (HPC)): 104 % of control
T/C (dose: 400.0 mg/kg/injection, schedule: Q01DX009 (ip), vehicle: Klucel (hydroxypropylcellulose) (HPC)): 95 % of control

CN=C(N)Nc1ccc(C(=O)O)cc1
T/C (dose: 50.0 mg/kg/injection, schedule: Q01DX009 (ip), vehicle: water): 93 % of control
T/C (dose: 100.0 mg/kg/injection, schedule: Q01DX009 (ip), vehicle: water): 99 % of control
T/C (dose: 100.0 mg/kg/injection, schedule: Q04DX003 (ip), vehicle: water): 100 % of control
T/C (dose: 200.0 mg/kg/injection, schedule: Q01DX009 (ip), vehicle: water): 90 % of control
T/C (dose: 200.0 mg/kg/injection, schedule: Q04DX003 (ip), vehicle: water): 94 % of control
T/C (dose: 400.0 mg/kg/injection, schedule: Q01DX009 (ip), vehicle: water): 92 % of control
T/C (dose: 400.0 mg/kg/injection, schedule: Q04DX003 (ip), vehicle: water): 88 % of control

O=C(/C=N/O)Nc1cc(Cl)ccc1Cl
T/C [2]: 95 % of control
T/C [3]: 100 % of control
T/C [8]: 90 % of control
T/C [6]: 100 % of control
T/C [9]: 90 % of control
T/C [4]: 100 % of control

Cc1nc2ccc(O)cc2cc1CBr
T/C (dose: 6.25 mg/kg/injection, schedule: Q01DX009 (ip), vehicle: saline): 94 % of control and 105 % of control and 106 % of control
T/C (dose: 6.25 mg/kg/injection, schedule: Q04DX003 (ip), vehicle: saline): 98 % of control
T/C (dose: 12.5 mg/kg/injection, schedule: Q01DX009 (ip), vehicle: saline): 101 % of control and 113 % of control and 118 % of control
T/C (dose: 12.5 mg/kg/injection, schedule: Q04DX003 (ip), vehicle: saline): 107 % of control
T/C (dose: 25.0 mg/kg/injection, schedule: Q01DX009 (ip), vehicle: saline): 112 % of control and 119 % of control
T/C (dose: 25.0 mg/kg/injection, schedule: Q04DX003 (ip), vehicle: saline): 107 % of control
T/C (dose: 40.0 mg/kg/injection, schedule: Q01DX009 (ip), vehicle: saline): 103 % of control
T/C (dose: 50.0 mg/kg/injection, schedule: Q04DX003 (ip), vehicle: saline): 107 % of control

CC(=O)c1ccc2ccccc2c1OC(=O)c1cccnc1
T/C (dose: 50.0 mg/kg/injection, schedule: Q01DX009 (ip), vehicle: other): 100 % of control
T/C (dose: 100.0 mg/kg/injection, schedule: Q01DX009 (ip), vehicle: other): 109 % of control
T/C (dose: 200.0 mg/kg/injection, schedule: Q01DX009 (ip), vehicle: other): 118 % of control

O=C(/C(=N/Nc1ccccc1)c1ccccc1)c1ccccc1
T/C (dose: 100.0 mg/kg/injection, schedule: Q04DX003 (ip), vehicle: Klucel (hydroxypropylcellulose) (HPC)): 104 % of control
T/C (dose: 200.0 mg/kg/injection, schedule: Q04DX003 (ip), vehicle: Klucel (hydroxypropylcellulose) (HPC)): 100 % of control
T/C (dose: 400.0 mg/kg/injection, schedule: Q04DX003 (ip), vehicle: Klucel (hydroxypropylcellulose) (HPC)): 113 % of control

C=CCOC(=O)C1c2ccccc2Cc2ccccc21
T/C [2]: 110 % of control
T/C [3]: 100 % of control
T/C [8]: 115 % of control
T/C [6]: 100 % of control
T/C [9]: 110 % of control
T/C [4]: 109 % of control

CCOC(=O)CCC(NC(=O)c1ccc2c(c1)CCCN2C=O)C(=O)OCC (stereo not given)
T/C (dose: 25.0 mg/kg/injection, schedule: Q01DX001 (ip), vehicle: saline sonified): 100 % of control
T/C (dose: 50.0 mg/kg/injection, schedule: Q01DX001 (ip), vehicle: saline sonified): 100 % of control
T/C (dose: 100.0 mg/kg/injection, schedule: Q01DX001 (ip), vehicle: saline sonified): 100 % of control

COc1cc2oc3c(c(=O)c2c(O)c1/C=C/C(C)C)C(C=C(C)C)Oc1cc(O)ccc1-3 (stereo not given)
T/C (dose: 6.25 mg/kg/injection, schedule: Q01DX009 (ip), vehicle: Klucel (hydroxypropylcellulose) (HPC)): 94 % of control
T/C (dose: 12.5 mg/kg/injection, schedule: Q01DX009 (ip), vehicle: Klucel (hydroxypropylcellulose) (HPC)): 110 % of control
T/C (dose: 25.0 mg/kg/injection, schedule: Q01DX009 (ip), vehicle: Klucel (hydroxypropylcellulose) (HPC)): 108 % of control
T/C (dose: 50.0 mg/kg/injection, schedule: Q01DX009 (ip), vehicle: Klucel (hydroxypropylcellulose) (HPC)): 100 % of control
T/C [7]: 107 % of control

CC(=O)OCc1ccc[n+](C2=C([O-])C(=O)C([n+]3cccc(COC(C)=O)c3)=C([O-])C2=O)c1
T/C [1]: 104 % of control
T/C [2]: 98 % of control
T/C [8]: 102 % of control

CCCCC(=O)NC(=O)c1ccccc1
T/C [2]: 104 % of control
T/C [3]: 108 % of control
T/C [8]: 104 % of control
T/C [6]: 104 % of control
T/C [4]: 100 % of control

O=[N+]([O-])c1ccc(N/N=C\c2ccc3ccccc3n2)cc1
T/C (dose: 100.0 mg/kg/injection, schedule: Q01DX009 (ip), vehicle: saline): 104 % of control
T/C [5]: 118 % of control
T/C (dose: 200.0 mg/kg/injection, schedule: Q01DX009 (ip), vehicle: saline): 109 % of control
T/C (dose: 200.0 mg/kg/injection, schedule: Q04DX003 (ip), vehicle: saline): 104 % of control
T/C (dose: 400.0 mg/kg/injection, schedule: Q04DX003 (ip), vehicle: saline): 109 % of control
